Source: patent US20200085776A1, “Methods of Reducing C-Reactive Protein and/or Treating Cardiovascular Disease” (CARDAX, INC., priority 2018, published 2020)

Test system: C-reactive protein (CRP)
Test: CRP (hs-CRP) in blood, CHASE clinical study
Type: in vivo, human
Conditions: Group X 12 mg BID; for CRP Max / CRP Mean (SD) / CRP Median / CRP Min: V6 Week 12
Excerpt: This is a two-part study comprising Part I and Part II. Following screening, Part I consists of a randomized, double-blind, placebo controlled dosing period of up to 12 weeks. The study shall be conducted at one or more study sites in Hawaii. Approximately 360 subjects qualified after completion of screening procedures shall be randomized in a 1:1:1 ratio to one of three treatment groups, per Table 1.
The Part I 12-week double-blind dosing period commences with V2, including randomization and first dose of study product, and continues with study visits at Week 1-2 (V3), Week 4 (V4), Week 8 (V5), and Week 12 (V6). V6 procedures will conclude Part I.
Blood shall be obtained at each visit for CRP. The screening specimen shall be processed at the local lab and reported to the study staff for eligibility determination; CRP samples at V7 and V8 may also be processed locally and reported directly to study staff. Samples for CRP from V2 through V6 may be batched, processed, and reported as specified in the Laboratory Manual.
At each these visits, blood was obtained for measurement of CRP, among other parameters. Table 7A provides a summary of the CRP measurements (mg/L) at each visit and Table 7B provides a summary of the differences of CRP levels between V2 and V6.

[1] = subjects with DM2, hypertension and hyperlipidemia but not CAD
[2] = subjects with Diabetes Mellitus Type II
[3] = subjects with baseline level greater than 2.0
[4] = baseline to Week 12, all subjects
[5] = baseline to Week 12, subjects not taking a hypertension agent
[6] = baseline to Week 12, subjects not taking any cardiac therapeutic agent
[7] = baseline to Week 12, subjects not taking statins
[8] = baseline to Week 12, subjects taking an anti-diabetic agent
[9] = baseline to Week 12, subjects with CAD
[10] = baseline to Week 12, subjects with DM2, hypertension and hyperlipidemia but not CAD
[11] = baseline to Week 12, subjects with Diabetes Mellitus Type II
[12] = baseline to Week 12, subjects with baseline level greater than 2.0
[13] = baseline to Week 12, subjects with hyperlipidemia

## CC1=C(/C=C/C(C)=C/C=C/C(C)=C/C=C/C=C(C)/C=C/C=C(C)/C=C/C2=C(C)C(=O)C(O)CC2(C)C)C(C)(C)CC(O)C1=O (stereo not drawn) [Astaxanthin, astaxanthin]
[1]
  CRP Max: 6.80 mg/L
  CRP Mean (SD): 2.95 (2.32) mg/L
  CRP Median: 1.91 mg/L
  CRP Min: 1.02 mg/L
[2]
  CRP Max: 6.80 mg/L
  CRP Mean (SD): 2.91 (2.07) mg/L
  CRP Median: 2.32 mg/L
  CRP Min: 1.02 mg/L
[3]
  CRP Max: 11.04 mg/L
  CRP Mean (SD): 3.69 (3.14) mg/L
  CRP Median: 2.71 mg/L
  CRP Min: 0.22 mg/L
Subjects with hyperlipidemia
  CRP Max: 11.04 mg/L
  CRP Mean (SD): 3.90 (3.38) mg/L
  CRP Median: 2.71 mg/L
  CRP Min: 1.02 mg/L
[4]
  CRP V2 to V6 % Change Max: 122.6%
  CRP V2 to V6 % Change Mean: −21.3%
  CRP V2 to V6 % Change Median: −31.8%
  CRP V2 to V6 % Change Min: −89.8%
  CRP V2 to V6 Change Max: 6.08 mg/L
  CRP V2 to V6 Change Mean: -2.07 mg/L
  CRP V2 to V6 Change Median: -1.57 mg/L
  CRP V2 to V6 Change Min: -11.1 mg/L
[5]
  CRP V2 to V6 % Change Max: −25.8, −25.8%
  CRP V2 to V6 % Change Mean (SD): −25.8%
  CRP V2 to V6 % Change Median: −25.8%
  CRP V2 to V6 % Change Min: −25.8, −25.8%
  CRP V2 to V6 Change Max: −0.94, −0.94 mg/L
  CRP V2 to V6 Change Mean (SD): -0.94 mg/L
  CRP V2 to V6 Change Median: -0.94 mg/L
  CRP V2 to V6 Change Min: −0.94, −0.94 mg/L
[6]
  CRP V2 to V6 % Change Max: −25.8%
  CRP V2 to V6 % Change Mean (SD): −56.6 (29.46) %
  CRP V2 to V6 % Change Median: −61.9%
  CRP V2 to V6 % Change Min: −89.8%
  CRP V2 to V6 Change Max: -0.37 mg/L
  CRP V2 to V6 Change Mean (SD): −4.28 (4.63) mg/L
  CRP V2 to V6 Change Median: -1.94 mg/L
  CRP V2 to V6 Change Min: -11.1 mg/L
[7]
  CRP V2 to V6 % Change Max: 122.6%
  CRP V2 to V6 % Change Mean (SD): 2.34 (88.58) %
  CRP V2 to V6 % Change Median: −25.6%
  CRP V2 to V6 % Change Min: −89.8%
  CRP V2 to V6 Change Max: 6.08 mg/L
  CRP V2 to V6 Change Mean (SD): −0.18 (4.04) mg/L
  CRP V2 to V6 Change Median: -0.80 mg/L
  CRP V2 to V6 Change Min: -5.89 mg/L
[8]
  CRP V2 to V6 % Change** Max: −26.6%
  CRP V2 to V6 % Change** Mean (SD): −52.9 (20.70) %
  CRP V2 to V6 % Change** Median: −55.7%
  CRP V2 to V6 % Change** Min: −78.8%
  CRP V2 to V6 Change Max: -0.37 mg/L
  CRP V2 to V6 Change Mean (SD): −4.61 (4.14) mg/L
  CRP V2 to V6 Change Median: -3.76 mg/L
  CRP V2 to V6 Change Min: -11.1 mg/L
[9]
  CRP V2 to V6 % Change Max: −68.4%
  CRP V2 to V6 % Change Mean (SD): −68.4%
  CRP V2 to V6 % Change Median: −68.4%
  CRP V2 to V6 % Change Min: −68.48%
  CRP V2 to V6 Change Max: −5.89, −5.89 mg/L
  CRP V2 to V6 Change Mean (SD): -5.89 mg/L
  CRP V2 to V6 Change Median: -5.89 mg/L
  CRP V2 to V6 Change Min: −5.89, −5.89 mg/L
[10]
  CRP V2 to V6 % Change Max: −26.6%
  CRP V2 to V6 % Change Mean (SD): −49.7 (21.51) %
  CRP V2 to V6 % Change Median: −49.5%
  CRP V2 to V6 % Change Min: −78.8%
  CRP V2 to V6 Change Max: -0.37 mg/L
  CRP V2 to V6 Change Mean (SD): −4.35 (4.57) mg/L
  CRP V2 to V6 Change Median: -1.63 mg/L
  CRP V2 to V6 Change Min: -11.1 mg/L
[11]
  CRP V2 to V6 % Change Max: −26.6%
  CRP V2 to V6 % Change Mean (SD): −52.9 (20.70) %
  CRP V2 to V6 % Change Median: −55.7%
  CRP V2 to V6 % Change Min: −78.8%
  CRP V2 to V6 Change Max: -0.37 mg/L
  CRP V2 to V6 Change Mean (SD): −4.61 (4.14) mg/L
  CRP V2 to V6 Change Median: -3.76 mg/L
  CRP V2 to V6 Change Min: -11.1 mg/L
[12]
  CRP V2 to V6 % Change Max: 122.6%
  CRP V2 to V6 % Change Mean (SD): −20.8 (73.37) %
  CRP V2 to V6 % Change Median: −40.7%
  CRP V2 to V6 % Change Min: −89.8%
  CRP V2 to V6 Change Max: 6.08 mg/L
  CRP V2 to V6 Change Mean (SD): −2.24 (4.83) mg/L
  CRP V2 to V6 Change Median: -1.60 mg/L
  CRP V2 to V6 Change Min: -11.1 mg/L
[13]
  CRP V2 to V6 % Change Max: 122.6%
  CRP V2 to V6 % Change Mean (SD): −27.5 (63.84) %
  CRP V2 to V6 % Change Median: −40.7%
  CRP V2 to V6 % Change Min: −78.8%
  CRP V2 to V6 Change Max: 6.08 mg/L
  CRP V2 to V6 Change Mean (SD): −2.81 (5.17) mg/L
  CRP V2 to V6 Change Median: -1.60 mg/L
  CRP V2 to V6 Change Min: -11.1 mg/L
